According to BigSolDB 2.1:

O=C(O)/C=C/c1ccc(Cl)cc1
solubility (mole fraction)
Settings | 283.15 K | 288.15 K | 293.15 K | 298.15 K | 303.15 K | 308.15 K | 313.15 K | 318.15 K | 323.15 K
in 1,4-dioxane | – | 0.00826 | 0.0094 | 0.0106 | 0.0118 | 0.0132 | 0.0148 | 0.0158 | 0.018
in acetone | 0.00214 | 0.00248 | 0.00303 | 0.00334 | 0.00388 | 0.00434 | 0.00509 | 0.00556 | 0.00654
in acetonitrile | 0.000318 | 0.000351 | 0.000365 | 0.000425 | 0.000468 | 0.000515 | 0.000622 | 0.000803 | 0.00105
in ethanol | 0.00136 | 0.00166 | 0.00184 | 0.00207 | 0.00238 | 0.00265 | 0.00317 | 0.00363 | 0.004
in ethyl acetate | 0.00159 | 0.00166 | 0.0019 | 0.00214 | 0.00242 | 0.00266 | 0.00315 | 0.00379 | 0.00442
in isobutanol | 0.00102 | 0.00125 | 0.00154 | 0.00177 | 0.00195 | 0.00223 | 0.00244 | 0.00282 | 0.00325
in isopropanol | 0.00118 | 0.00141 | 0.00165 | 0.0019 | 0.00215 | 0.00255 | 0.0029 | 0.00359 | 0.00454
in methanol | 0.00112 | 0.00123 | 0.00136 | 0.00155 | 0.00172 | 0.00187 | 0.00206 | 0.00233 | 0.00251
in methyl acetate | 0.00142 | 0.00173 | 0.00201 | 0.00231 | 0.00262 | 0.00298 | 0.0033 | 0.00355 | 0.0038
in n-butanol | 0.00123 | 0.00154 | 0.00184 | 0.00219 | 0.00249 | 0.00283 | 0.00314 | 0.0037 | 0.00427
in n-propanol | 0.0012 | 0.00146 | 0.00177 | 0.002 | 0.00234 | 0.00266 | 0.00308 | 0.00361 | 0.00432
in water | 5.3e-06 | 6.88e-06 | 8.16e-06 | 9.38e-06 | 1.16e-05 | 1.26e-05 | 1.51e-05 | 1.74e-05 | 2.06e-05
